Source: patent US8759535B2, “Substituted fused imidazole derivatives, pharmaceutical compositions, and methods of use thereof” (High Point Pharmaceuticals, LLC, priority 2010, dated 2014)

System: HMOX1
Test: HMOX1 Protein Assay (immunostaining of HO-1 in NHLF cells, GE InCell 1000)
Assay type: cell-based
Details: Homo sapiens, fold change above DMSO treated cells, 3 μM compound (asterisk), 16 h
In short: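 NHLF cells seeded overnight in FGM-2, then exposed to compound or DMSO vehicle for 16 h, fixed, and immunostained for HO-1 with Hoechst nuclear counterstain; imaged on InCell 1000. Values are fold change over DMSO-treated cells, generally at 5 μM (0.8% DMSO), with asterisked entries at 3 μM.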

First: Cn1c(Nc2nc3ccc(C(F)(F)F)cc3s2)nc2cc(C(=O)NCC(=O)N3CCC[C@@H](O)C3)ccc21 [Example 432, 1-Methyl-2-(6-trifluoromethyl-benzothiazol-2-ylamino)-1H-benzoimidazole-5-carboxylic acid [2-((R)-3-hydroxy-piperidin-1-yl)-2-oxo-ethyl]-amide]
Second: Cn1c(Nc2nc3ccc(C(F)(F)F)cc3s2)nc2cc(C(=O)NCCCCCO)ccc21 [Example 228, 1-Methyl-2-(6-trifluoromethyl-benzothiazol-2-ylamino)-1H-benzoimidazole-5-carboxylic acid (5-hydroxy-pentyl)-amide]
The fold induction at 3 µM of the first is higher: 27.3 for the first, 26 for the second.

Compared with CC(O)CCNC(=O)c1ccc2c(c1)nc(Nc1nc3ccc(Cl)cc3s1)n2C (centres unmarked) [Example 215, 2-(6-Chloro-benzothiazol-2-ylamino)-1-methyl-1H-benzoimidazole-5-carboxylic acid (3-hydroxy-butyl)-amide], C[C@H](CO)OCCNC(=O)c1ccc2c(c1)nc(Nc1nc3ccc(Cl)cc3s1)n2C [Example 243, 2-(6-Chloro-benzothiazol-2-ylamino)-1-methyl-1H-benzoimidazole-5-carboxylic acid [2-((R)-2-hydroxy-1-methyl-ethoxy)-ethyl]-amide] is lower in fold induction at 3 µM: 16 for the first, 15.2 for the second.

Going from Cn1c(Nc2nc3ccc(Cl)cc3s2)nc2cc(C(=O)NCCCN3CCCC3)ccc21 [Example 354, 2-(6-Chloro-benzothiazol-2-ylamino)-1-methyl-1H-benzoimidazole-5-carboxylic acid (3-pyrrolidin-1-yl-propyl)-amide] to Cn1c(Nc2nc3ccc(Cl)cc3s2)nc2cc(C(=O)N[C@H]3CC[C@H](O)CC3)ccc21 [Example 225, 2-(6-Chloro-benzothiazol-2-ylamino)-1-methyl-1H-benzoimidazole-5-carboxylic acid (trans-4-hydroxy-cyclohexyl)-amide], the fold induction at 3 µM rises from 17 to 17.7.

Same assay, conditions: Homo sapiens, fold change above DMSO treated cells, 5 μM compound, 16 h

First: Cn1c(Nc2nc3ccc(OC(F)(F)F)cc3s2)nc2cc(C(=O)NCC(C)(C)O)ccc21 [Example 45, 1-Methyl-2-(6-trifluoromethoxy-benzothiazol-2-ylamino)-1H-benzoimidazole-5-carboxylic acid (2-hydroxy-2-methyl-propyl)-amide]
Second: COC(=O)C(C)(C)NC(=O)c1ccc2c(c1)nc(Nc1nc3ccc(OC(F)(F)F)cc3s1)n2C [Example 145, 2-Methyl-2-{[1-methyl-2-(6-trifluoromethoxy-benzothiazol-2-ylamino)-1H-benzimidazole-5-carbonyl]-amino}-propionic acid methyl ester]
The fold induction at 5 µM of the first is higher: 12.5 for the first, 7.1 for the second.

Going from Cn1c(Nc2nc3ccc(Cl)cc3s2)nc2cc(C(=O)N[C@H]3CCN(CCO)C3)ccc21 [Example 293, 2-(6-Chloro-benzothiazol-2-ylamino)-1-methyl-1H-benzoimidazole-5-carboxylic acid [(S)-1-(2-hydroxy-ethyl)-pyrrolidin-3-yl]amide] to Cn1c(Nc2nc3ccc(Cl)cc3s2)nc2cc(C(=O)NCC(=O)N3CCOCC3)ccc21 [Example 421, 2-(6-Chloro-benzothiazol-2-ylamino)-1-methyl-1H-benzoimidazole-5-carboxylic acid (2-morpholin-4-yl-2-oxo-ethyl)-amide], the fold induction at 5 µM rises from 29.4 to 32.2.

First: Cn1c(Nc2nc3ccc(OC(F)(F)F)cc3s2)nc2cc(C(=O)NCCN3CCCC3=O)ccc21 [Example 329, 1-Methyl-2-(6-trifluoromethoxy-benzothiazol-2-ylamino)-1H-benzoimidazole-5-carboxylic acid [2-(2-oxo-pyrrolidin-1-yl)-ethyl]-amide]
Second: Cn1c(Nc2nc3ccc(OC(F)(F)F)cc3s2)nc2cc(C(=O)NCCC#N)ccc21 [Example 212, 1-Methyl-2-(6-trifluoromethoxy-benzothiazol-2-ylamino)-1H-benzoimidazole-5-carboxylic acid (2-cyano-ethyl)-amide]
The fold induction at 5 µM of the first is higher: 52.2 for the first, 48.8 for the second.

Going from COc1cc2c(cc1C(=O)NCCN1CCOCC1)nc(Nc1nc3ccc(OC(F)(F)F)cc3s1)n2C [Example 66, 6-Methoxy-1-methyl-2-(6-trifluoromethoxy-benzothiazol-2-ylamino)-1H-benzoimidazole-5-carboxylic acid (2-morpholin-4-yl-ethyl)-amide] to CCOCCNC(=O)c1cc2nc(Nc3nc4ccc(OC(F)(F)F)cc4s3)n(C)c2cc1OC [Example 65, 6-Methoxy-1-methyl-2-(6-trifluoromethoxy-benzothiazol-2-ylamino)-1H-benzoimidazole-5-carboxylic acid (2-ethoxy-ethyl)-amide], the fold induction at 5 µM falls from 20.8 to 10.2.

Compared with CNC(=O)c1ccc2c(c1)nc(Nc1nc3ccc(OC(F)(F)F)cc3s1)n2CCF [Example 170, 1-(2-Fluoro-ethyl)-2-(6-trifluoromethoxy-benzothiazol-2-ylamino)-1H-benzoimidazole-5-carboxylic acid methylamide], CSCCCNC(=O)c1ccc2c(c1)nc(Nc1nc3ccc(OC(F)(F)F)cc3s1)n2C [Example 108, 1-Methyl-2-(6-trifluoromethoxy-benzothiazol-2-ylamino)-1H-benzoimidazole-5-carboxylic acid (3-methylsulfanyl-propyl)-amide] is lower in fold induction at 5 µM: 23 for the first, 18.3 for the second.

First: Cn1c(Nc2nc3ccc(S(C)(=O)=O)cc3s2)nc2cc(C(=O)O)ccc21 [Example 119, 2-(6-Methanesulfonyl-benzothiazol-2-ylamino)-1-methyl-1H-benzimidazole-5-carboxylic acid]
Second: CCn1c(Nc2nc3ccc(Cl)cc3s2)nc2cc(C(=O)NC)ccc21 [Example 174, 2-(6-Chloro-benzothiazol-2-ylamino)-1-ethyl-1H-benzoimidazole-5-carboxylic acid methylamide]
The fold induction at 5 µM of the first is lower: 22.1 for the first, 26.2 for the second.

First: CCn1c(Nc2nc3ccc(C(F)(F)F)cc3s2)nc2cc(C(=O)NCCSC)ccc21 [Example 185, 1-Ethyl-2-(6-trifluoromethyl-benzothiazol-2-ylamino)-1H-benzoimidazole-5-carboxylic acid (2-methylsulfanyl-ethyl)-amide]
Second: Cn1c(Nc2nc3ccc(OC(F)(F)F)cc3s2)nc2cc(C(=O)NCCCCO)ccc21 [Example 219, 1-Methyl-2-(6-trifluoromethoxy-benzothiazol-2-ylamino)-1H-benzoimidazole-5-carboxylic acid (4-hydroxy-butyl)-amide]
The fold induction at 5 µM of the first is lower: 11.2 for the first, 40 for the second.

Going from Cn1c(Nc2nc3ccc(OC(F)(F)F)cc3s2)nc2cc(C(=O)NCc3ccco3)ccc21 [Example 48, 1-Methyl-2-(6-trifluoromethoxy-benzothiazol-2-ylamino)-1H-benzoimidazole-5-carboxylic acid (furan-2-ylmethyl)-amide] to Cn1c(Nc2nc3ccc(OC(F)(F)F)cc3s2)nc2cc(C(=O)NCCn3ccnc3)ccc21 [Example 327, 1-Methyl-2-(6-trifluoromethoxy-benzothiazol-2-ylamino)-1H-benzoimidazole-5-carboxylic acid (2-imidazol-1-yl-ethyl)-amide], the fold induction at 5 µM rises from 15.8 to 31.9.

Cn1c(Nc2nc3ccc(OC(F)(F)F)cc3s2)nc2cc(C(=O)NCCOCCO)ccc21 [Example 46, 1-Methyl-2-(6-trifluoromethoxy-benzothiazol-2-ylamino)-1H-benzoimidazole-5-carboxylic acid [2-(2-hydroxy-ethoxy)-ethyl]-amide] was tested, and the fold induction at 5 µM was 17.9.
